The source of these data is US4766046A, “Stabilized liposome/amphotericin composition and method” (priority 1985, dated 1988).

The subject of one data set is fungal infections. The settings on record: cited from earlier work.
For data set [1] the following is noted: cited from earlier work.
The conditions of data set [2]: free form; cited from earlier work.
How the values of data set [3] were obtained: The MLVs which formed were diluted, concentrated by ultrafiltration, and extruded successively through 0.4 and 0.2 micron polycarbonate membranes, as in Example II.
Liposomes were prepared from mixture #1 lipids and 3.5 mole percent AMB, with hydration in either PBS, or in a Tris--HCl buffer containing 5% w/v of one of the following sugars: glucose, mannitol, trehalose, sucrose, lactose, or maltodextrin. The MLVs formed on hydration with the selected aqueous medium were extruded successively through 0.4 and 0.2 micron polycarbonate membranes, diluted with the selected medium, and concentrated to the original volume, according to Example I. The liposome suspensions were frozen against a dry ice/isopropanol mixture and lyophilized at a pressure of about 15 mTorr. The lyophilized material was stored under nitrogen at refrigerator temperature until used, typically at least about 12 hours.
Following storage, each of the lyophilized liposome preparations was resuspended to its prelyophilization volume by addition of distilled water. The samples were agitated briefly to facilitate resuspension, and resuspended samples were examined for liposome size distribution, as above.

Structures are written as SMILES. Entries after “also recorded” stand apart in the source; their conditions may differ.

With `C[C@@H]1[C@H](O)[C@@H](C)/C=C/C=C/C=C/C=C/C=C/C=C/C=C/[C@H](O[C@@H]2O[C@H](C)[C@@H](O)[C@H](N)[C@@H]2O)C[C@@H]2O[C@](O)(C[C@@H](O)C[C@@H](O)[C@H](O)CC[C@@H](O)C[C@@H](O)CC(=O)O[C@H]1C)C[C@H](O)[C@H]2C(=O)O` [AMB, Amphotericin B], the “antifungal activity, in words” value in the data set with fungal infections is recorded as “effective antifungal agent”. Also, the median lethal dose (LD50) in data set [1] (earlier studies (references 2-12)) is 2 to 3 mg/kg. For the same compound, in data set [2], the “side effects of free AMB” value is “side effects resulting from red blood cell disruption are observed initially, followed by more serious cardiotoxicity effects; also recorded: Renal toxicity”.

`CC(C)[C@@H](C)/C=C/[C@@H](C)[C@H]1CC[C@H]2C3=CC=C4C[C@@H](O)CC[C@]4(C)[C@H]3CC[C@]12C` [Ergosterol]: the “protective effect in liposomes” value in data set [1] (compared with cholesterol (reference 12)) is recorded as “greater protective effect than cholesterol in liposomes”.

Consider `O=C[C@H](O)[C@@H](O)[C@H](O)[C@H](O)CO` [glucose], for which the “size stabilization on dehydration and rehydration” value in data set [3] is “good size stabilization”.

Regarding `OC[C@H]1O[C@@](CO)(O[C@H]2O[C@H](CO)[C@@H](O)[C@H](O)[C@H]2O)[C@@H](O)[C@@H]1O` [sucrose], in data set [3], the “size stabilization on dehydration and rehydration” value is given as “good size stabilization”.
